Patent publication US20230117034A1, “PYRAZOLOTRIAZINES” (Bayer Aktiengesellschaft, priority 2019, published 2023)

How the values were obtained:
CDK12/CycK = CDK12/CycK (Homo sapiens, UniProt Q9NYV4); experiment: CDK12/CycK high ATP kinase assay (TR-FRET, 2 mM ATP); assay type: biochemical; conditions: 2 mM ATP (high ATP); median; read-out: CDK12/CyclinK, 2 mM ATP (high ATP), IC50-[mol/l] (median)
In short: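 His-tagged human CDK12/CycK (~0.75 nM) pre-incubated 15 min with compound, then 60 min at 22 °C with 2 mM ATP and 1 µM biotinylated peptide (HEPES pH 7.5, 20 mM MgCl2). EDTA stop; phospho-Ser62 antibody/Eu anti-rabbit and streptavidin-XL665 TR-FRET, 665/620 nm ratio normalised to give IC50.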

[1] = test system: BRCA1 mRNA expression in MDA-MB-231 cells; experiment: qRT-PCR assay: BRCA1 mRNA expression in MDA-MB-231; assay type: cell-based, human; conditions: Homo sapiens, MDA-MB-231, Inhibition of BRCA1 mRNA expression in MDA-MB-231 cells; median; read-out: RTqPCR-MDA-MB-231, IC50, BRCA1 (median)
In short: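 Read-out is RT-qPCR with expression normalised to the GAPDH housekeeping gene. Before RNA isolation, plated cells (200,000 per well, 24 h attachment) received test substances continuously over 24 h, and 600 ng of RNA served as cDNA template.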

[2] = target: T1, CYCLIN K (nuclear staining in CAL-120 cells) (Homo sapiens, UniProt O75909); experiment: CYCLIN K nuclear protein level: immunofluorescence high content analysis (CAL-120); assay type: cell-based; conditions: 24 h, 50% reduction of nuclear CCNK staining intensity, median, read-out: CYCLIN K degradation IF, DC50-[mol/l] (median)
T1 construct: endogenous in cells; host or cells: CAL-120 human breast cancer cells (DSMZ ACC 459)
T1 sequence (O75909 whole entry): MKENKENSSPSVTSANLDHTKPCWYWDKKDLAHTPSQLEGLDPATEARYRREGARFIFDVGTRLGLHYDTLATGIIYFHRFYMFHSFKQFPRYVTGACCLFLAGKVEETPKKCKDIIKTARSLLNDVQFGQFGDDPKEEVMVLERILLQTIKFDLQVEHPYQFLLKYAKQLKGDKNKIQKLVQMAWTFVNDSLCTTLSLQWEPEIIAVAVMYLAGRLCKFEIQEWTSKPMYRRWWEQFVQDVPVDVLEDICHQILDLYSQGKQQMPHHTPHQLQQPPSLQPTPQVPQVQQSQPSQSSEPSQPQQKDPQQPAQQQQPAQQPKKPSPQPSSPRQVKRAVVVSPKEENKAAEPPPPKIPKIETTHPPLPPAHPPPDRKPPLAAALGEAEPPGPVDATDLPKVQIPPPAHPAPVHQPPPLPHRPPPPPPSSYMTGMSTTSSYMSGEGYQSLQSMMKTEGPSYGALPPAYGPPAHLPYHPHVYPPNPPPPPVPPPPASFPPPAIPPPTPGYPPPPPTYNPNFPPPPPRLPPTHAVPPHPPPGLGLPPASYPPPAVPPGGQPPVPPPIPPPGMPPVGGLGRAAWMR
T1 sequence (Q9NYV4 whole entry partner): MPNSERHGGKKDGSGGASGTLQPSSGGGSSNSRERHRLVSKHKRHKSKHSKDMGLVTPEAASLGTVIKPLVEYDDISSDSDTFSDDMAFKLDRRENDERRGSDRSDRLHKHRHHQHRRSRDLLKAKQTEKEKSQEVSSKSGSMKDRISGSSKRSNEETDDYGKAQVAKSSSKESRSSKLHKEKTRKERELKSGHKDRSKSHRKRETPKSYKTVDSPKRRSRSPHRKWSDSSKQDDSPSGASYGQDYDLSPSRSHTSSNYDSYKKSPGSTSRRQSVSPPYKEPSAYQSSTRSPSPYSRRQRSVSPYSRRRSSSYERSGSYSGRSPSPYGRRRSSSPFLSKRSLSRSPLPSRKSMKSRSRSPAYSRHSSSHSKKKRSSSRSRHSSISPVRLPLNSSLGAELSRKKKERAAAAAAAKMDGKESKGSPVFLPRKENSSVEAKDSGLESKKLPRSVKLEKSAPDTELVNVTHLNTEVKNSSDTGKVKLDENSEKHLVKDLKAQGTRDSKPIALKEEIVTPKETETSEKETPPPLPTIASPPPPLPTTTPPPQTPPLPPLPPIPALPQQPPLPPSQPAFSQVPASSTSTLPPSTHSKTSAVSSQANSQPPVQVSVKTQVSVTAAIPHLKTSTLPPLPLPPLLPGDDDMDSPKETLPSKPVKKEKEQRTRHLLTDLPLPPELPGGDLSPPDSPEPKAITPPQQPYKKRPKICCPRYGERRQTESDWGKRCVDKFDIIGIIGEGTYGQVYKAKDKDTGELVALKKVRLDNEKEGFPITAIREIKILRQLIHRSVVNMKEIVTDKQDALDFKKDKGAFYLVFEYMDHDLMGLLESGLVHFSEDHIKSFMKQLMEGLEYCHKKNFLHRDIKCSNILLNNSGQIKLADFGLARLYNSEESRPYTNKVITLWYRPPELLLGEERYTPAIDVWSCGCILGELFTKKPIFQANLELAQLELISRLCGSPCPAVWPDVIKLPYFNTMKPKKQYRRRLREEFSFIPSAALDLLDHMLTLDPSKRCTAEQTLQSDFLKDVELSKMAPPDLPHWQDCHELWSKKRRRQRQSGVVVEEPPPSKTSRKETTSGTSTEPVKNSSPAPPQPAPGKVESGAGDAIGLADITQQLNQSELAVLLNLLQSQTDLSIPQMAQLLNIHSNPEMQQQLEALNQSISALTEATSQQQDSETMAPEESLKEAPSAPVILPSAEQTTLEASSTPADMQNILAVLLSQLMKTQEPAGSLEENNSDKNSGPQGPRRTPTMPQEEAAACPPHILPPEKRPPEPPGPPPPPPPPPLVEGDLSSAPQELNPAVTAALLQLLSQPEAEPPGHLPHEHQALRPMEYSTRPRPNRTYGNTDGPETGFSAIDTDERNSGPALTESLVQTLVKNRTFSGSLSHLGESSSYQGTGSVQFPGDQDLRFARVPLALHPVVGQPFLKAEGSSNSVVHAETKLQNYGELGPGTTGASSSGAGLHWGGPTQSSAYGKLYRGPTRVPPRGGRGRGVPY
Protocol: 8. CYCLIN K nuclear protein level: immunofluorescence High Content Analysis
CAL-120 human breast cancer cells (DSMZ ACC 459) are seeded in 1536-well microtiter plates (800 cells per well) containing 50 nanoL of compounds in Dose-Response. Control wells received DMSO or Example 4. Plates are then incubated for 24 h at 37° C. in an humidified incubator and fixed with 4% PFA for 10 min. Then immunofluorescence (IF) against CYCLIN K (ThermoFisher Scientific CONK Antibody #PA5-85020, rabbit, 1:200 dilution) is performed using standard IF protocols. Cells are then stained with Hoechst 33342 (Life Technologies, H-1399, 0.1 microg/ml) and imaged on an automated confocal microscopy system (e.g. Perkin Elmer Opera Phenix). Nuclear and cytoplasmic intensity as well as the nuclear/cytoplasmic intensity ratio is determined by automated image analysis using custom generated scripts (MetaXpress). Data is then transferred to Genedata Screener software, normalized to DMSO and control and DC50 values (degrading concentration to achieve 50% reduction of nuclear CCNK staining intensity relative to controls) are reported.

Sequence of CDK12/CycK (Q9NYV4 with tags, fused parts or gaps): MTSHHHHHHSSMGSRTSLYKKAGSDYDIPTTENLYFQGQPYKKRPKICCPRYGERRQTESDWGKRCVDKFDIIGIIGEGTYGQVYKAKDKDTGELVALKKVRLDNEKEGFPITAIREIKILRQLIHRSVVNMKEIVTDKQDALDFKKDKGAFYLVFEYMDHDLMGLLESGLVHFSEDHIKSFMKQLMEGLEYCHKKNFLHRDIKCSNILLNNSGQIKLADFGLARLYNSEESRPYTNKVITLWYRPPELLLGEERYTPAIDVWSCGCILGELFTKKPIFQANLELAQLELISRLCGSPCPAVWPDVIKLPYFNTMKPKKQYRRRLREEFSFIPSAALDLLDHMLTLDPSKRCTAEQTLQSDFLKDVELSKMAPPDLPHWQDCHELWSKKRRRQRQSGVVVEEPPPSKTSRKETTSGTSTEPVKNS
Sequence of CDK12/CycK (O75909 1-300 partner limits assumed): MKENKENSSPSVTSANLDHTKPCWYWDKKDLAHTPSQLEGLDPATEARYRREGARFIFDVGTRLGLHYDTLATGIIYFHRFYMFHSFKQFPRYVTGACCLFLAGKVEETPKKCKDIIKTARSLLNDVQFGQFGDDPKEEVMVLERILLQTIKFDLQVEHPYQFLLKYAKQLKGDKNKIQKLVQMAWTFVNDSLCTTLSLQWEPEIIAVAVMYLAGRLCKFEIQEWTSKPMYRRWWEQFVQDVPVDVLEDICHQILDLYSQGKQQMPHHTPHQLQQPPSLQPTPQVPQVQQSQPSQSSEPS

| SMILES | IC50 (CDK12/CycK) | IC50 [1] | DC50 [2] |
| --- | --- | --- | --- |
| Cc1ccc2[nH]c(CNc3nc(N4CCOCC4)nc4c(Br)cnn34)nc2c1 [Example 157, 8-bromo-N-[(5-methyl-1H-benzimidazol-2-yl)methyl]-2-(morpholin-4-yl)pyrazolo[1,5-a][1,3,5]triazin-4-amine] | 676 nM | 0.903 nM | 0.119 nM |
| CC(C)c1cnn2c(NCc3nc4ccccc4[nH]3)nc(NCC(C)(C)O)nc12 [Example 10, 1-{[4-{[(1H-benzimidazol-2-yl)methyl]amino}-8-(propan-2-yl)pyrazolo[1,5-a][1,3,5]triazin-2-yl]amino}-2-methylpropan-2-ol] | 8750 nM | 25.3 nM | 3.6 nM |
| Clc1ccc2[nH]c(CNc3nc(N4CCOCC4)nc4c(Br)cnn34)nc2c1 [Example 162, 8-bromo-N-[(5-chloro-1H-benzimidazol-2-yl)methyl]-2-(morpholin-4-yl)pyrazolo[1,5-a][1,3,5]triazin-4-amine] | 1020 nM | 1.09 nM | 0.112 nM |
| Fc1ccc(-c2cnn3c(NCc4nc5ccccc5[nH]4)nc(N4CCOCC4)nc23)cc1 [Example 106, N-[(1H-benzimidazol-2-yl)methyl]-8-(4-fluorophenyl)-2-(morpholin-4-yl)pyrazolo[1,5-a][1,3,5]triazin-4-amine] | > 9990 nM | 32.2 nM | 2.45 nM |
| CN1CCN(c2nc(NCc3nc4cc(F)ccc4[nH]3)n3ncc(C4CC4)c3n2)CC1 [Example 164, 8-cyclopropyl-N-[(5-fluoro-1H-benzimidazol-2-yl)methyl]-2-(4-methylpiperazin-1-yl)pyrazolo[1,5-a][1,3,5]triazin-4-amine] | > 20000 nM | 2.55 nM | 1.12 nM |
| C[C@@H]1CN(c2nc(NCc3nc4ccccc4[nH]3)n3ncc(Br)c3n2)C[C@H](C)N1C [Example 129, N-(1H-benzimidazol-2-ylmethyl)-8-bromo-2-[(3R,5S)-3,4,5-trimethylpiperazin-1-yl]pyrazolo[1,5-a][1,3,5]triazin-4-amine] | > 18200 nM | 174 nM | 3.39 nM |
| C[C@H]1CN(c2nc(NCc3nc4ccccc4[nH]3)n3ncc(Br)c3n2)CCN1C [Example 132, N-[(1H-benzimidazol-2-yl)methyl]-8-bromo-2-[(3S)-3,4-dimethylpiperazin-1-yl]pyrazolo[1,5-a][1,3,5]triazin-4-amine] | > 19200 nM | 29.5 nM | 2.22 nM |
| Fc1cccc2[nH]c(CNc3nc(N4CCOCC4)nc4c(Br)cnn34)nc12 [Example 97, 8-bromo-N-[(4-fluoro-1H-benzimidazol-2-yl)methyl]-2-(morpholin-4-yl)pyrazolo[1,5-a][1,3,5]triazin-4-amine] | 788 nM | 1.68 nM | 0.467 nM |
| Fc1cc(F)cc(-c2nnc(CNc3nc(N4CCOCC4)nc4c(Br)cnn34)[nH]2)c1 [Example 105, 8-bromo-N-{[5-(3,5-difluorophenyl)-4H-1,2,4-triazol-3-yl]methyl}-2-(morpholin-4-yl)pyrazolo[1,5-a][1,3,5]triazin-4-amine] | 1070 nM | 8.43 nM | 0.676 nM |
| Brc1cnn2c(NCc3nc4ccccc4[nH]3)nc(N3C[C@@H]4CCCN[C@@H]4C3)nc12 [Example 146, N-[(1H-benzimidazol-2-yl)methyl]-8-bromo-2-[(4aS,7aS)-octahydro-6H-pyrrolo[3,4-b]pyridin-6-yl]pyrazolo[1,5-a][1,3,5]triazin-4-amine] | 8860 nM | 16.1 nM | 0.56 nM |
| COc1ccc2[nH]c(CNc3nc(N4C[C@@H](C)O[C@@H](C)C4)nc4c(Br)cnn34)nc2c1 [Example 124, 8-bromo-2-[(2R, 6S)-2,6-dimethylmorpholin-4-yl]-N-[(5-methoxy-1H-benzimidazol-2-yl)methyl]pyrazolo[1,5-a][1,3,5]triazin-4-amine] | 489 nM | 4.66 nM | 0.142 nM |
| Cc1cccc2[nH]c(CNc3nc(N4CCN(C)CC4)nc4c(Br)cnn34)nc12 [Example 151, 8-bromo-N-[(4-methyl-1H-benzimidazol-2-yl)methyl]-2-(4-methylpiperazin-1-yl)pyrazolo[1,5-a][1,3,5]triazin-4-amine] | 4240 nM | 18.3 nM | 2.45 nM |
| CN1CCN(c2nc(NCc3nc4c(F)c(F)ccc4[nH]3)n3ncc(Br)c3n2)CC1 [Example 133, 8-bromo-N-[(4,5-difluoro-1H-benzimidazol-2-yl)methyl]-2-(4-methylpiperazin-1-yl)pyrazolo[1,5-a][1,3,5]triazin-4-amine] | 7010 nM | 4.23 nM | 0.0633 nM |
| Cc1ccc(-c2nnc(CNc3nc(N4CCOCC4)nc4c(Br)cnn34)[nH]2)cc1F [Example 98, 8-bromo-N-{[5-(3-fluoro-4-methylphenyl)-4H-1,2,4-triazol-3-yl]methyl}-2-(morpholin-4-yl)pyrazolo[1,5-a][1,3,5]triazin-4-amine] | 1080 nM | 78.8 nM | 28.1 nM |
| CCN1CCN(c2nc(NCc3nc4ccccc4[nH]3)n3ncc(Br)c3n2)CC1 [Example 137, N-[(1H-benzimidazol-2-yl)methyl]-8-bromo-2-(4-ethylpiperazin-1-yl)pyrazolo[1,5-a][1,3,5]triazin-4-amine] | 13000 nM | 205 nM | 4.68 nM |

Continued, values first:

| IC50 (CDK12/CycK) | IC50 [1] | DC50 [2] | SMILES |
| --- | --- | --- | --- |
| 6620 nM | 21.3 nM | 3 nM | Brc1cnn2c(NCc3nnc(-c4ccccc4)[nH]3)nc(N3CCNCC3)nc12.O=CO [Example 119, 8-bromo-N-[(5-phenyl-4H-1,2,4-triazol-3-yl)methyl]-2-piperazin-1-yl-pyrazolo[1,5-a][1,3,5]triazin-4-amine formate] |
| > 20000 nM | 24.6 nM | 0.735 nM | C[C@H]1CN(c2nc(NCc3nnc(-c4ccccc4)[nH]3)n3ncc(Br)c3n2)CCN1C.O=CO [Example 122, 8-bromo-2-[(3S)-3,4-dimethylpiperazin-1-yl]-N-[(5-phenyl-4H-1,2,4-triazol-3-yl)methyl]pyrazolo[1,5-a][1,3,5]triazin-4-amine formate] |
| 7170 nM | 7.04 nM | 0.713 nM | C[C@H]1CN(c2nc(NCc3nnc(-c4cccc(F)c4)[nH]3)n3ncc(Br)c3n2)CCN1C [Example 154, 8-bromo-2-[(3S)-3,4-dimethylpiperazin-1-yl]-N-{[5-(3-fluorophenyl)-4H-1,2,4-triazol-3-yl]methyl}pyrazolo[1,5-a][1,3,5]triazin-4-amine] |
| 13200 nM | 30 nM | 2.19 nM | Brc1cnn2c(NCc3nnc(-c4ccccc4)[nH]3)nc(N3C[C@@H]4C[C@H]3CO4)nc12 [Example 120, 8-bromo-2-[(1S,4S)-2-oxa-5-azabicyclo[2.2.1]heptan-5-yl]-N-[(5-phenyl-4H-1,2,4-triazol-3-yl)methyl]pyrazolo[1,5-a][1,3,5]triazin-4-amine] |
| 8440 nM | 37.6 nM | 2.01 nM | C[C@@H]1CN(c2nc(NCc3nnc(-c4ccccc4)[nH]3)n3ncc(Br)c3n2)CCN1C.O=CO [Example 130, 8-bromo-2-[(3R)-3,4-dimethylpiperazin-1-yl]-N-[(5-phenyl-4H-1,2,4-triazol-3-yl)methyl]pyrazolo[1,5-a][1,3,5]triazin-4-amine formate] |
| 4820 nM | 121 nM | 2.62 nM | Brc1cnn2c(NCc3nc4ccccc4[nH]3)nc(N3CCOCC3C3CC3)nc12 (stereo not drawn) [Example 117, N-(1H-benzimidazol-2-ylmethyl)-8-bromo-2-(3-cyclopropylmorpholin-4-yl)pyrazolo[1,5-a][1,3,5]triazin-4-amine] |
| 2950 nM | 8.2 nM | 1.42 nM | Fc1cccc(-c2nnc(CNc3nc(N4C[C@H]5C[C@@H]4CO5)nc4c(Br)cnn34)[nH]2)c1 [Example 153, 8-bromo-N-{[5-(3-fluorophenyl)-4H-1,2,4-triazol-3-yl]methyl}-2-[(1R,4R)-2-oxa-5-azabicyclo[2.2.1]heptan-5-yl]pyrazolo[1,5-a][1,3,5]triazin-4-amine] |
| 9710 nM | 16.2 nM | 2.77 nM | C[C@@H]1CN(c2nc(NCc3nnc(-c4ccccc4)[nH]3)n3ncc(Br)c3n2)C[C@H](C)N1 [Example 127, 8-bromo-2-[(3R,5S)-3,5-dimethylpiperazin-1-yl]-N-[(5-phenyl-4H-1,2,4-triazol-3-yl)methyl]pyrazolo[1,5-a][1,3,5]triazin-4-amine] |
